Measured values reported in ChEMBL document CHEMBL4800723, “Data for DCP probe BI-1942” (2021).

Experiments:
[1] = biological target: Neutrophil elastase (Homo sapiens) (UniProt P08246); assay: ELASTASE(H) Eurofins SafetyScreen44 (BI); settings: Compound concentration 10.0 uM
Caspase-1 (Homo sapiens) = Caspase-1 (Homo sapiens) (UniProt P29466); assay: CASPASE-1(H) Eurofins SafetyScreen44 (BI); settings: Compound concentration 10.0 uM
Caspase-6 (Homo sapiens) = Caspase-6 (Homo sapiens) (UniProt P55212); assay: CASPASE-6_CE Eurofins SafetyScreen44 (BI); settings: Compound concentration 10.0 uM
[2] = biological target: 5-hydroxytryptamine receptor 7 (Homo sapiens) (UniProt P34969); settings: Compound concentration 10.0 uM
Caspase-8 (Homo sapiens) = Caspase-8 (Homo sapiens) (UniProt Q14790); assay: CASPASE8_CE Eurofins SafetyScreen44 (BI); settings: Compound concentration 10.0 uM
[3] = biological target: Alpha-1D adrenergic receptor (Homo sapiens) (UniProt P25100); settings: Compound concentration 10.0 uM
[4] = biological target: D(3) dopamine receptor (Homo sapiens) (UniProt P35462); settings: Compound concentration 10.0 uM
[5] = biological target: 5-hydroxytryptamine receptor 2C (Homo sapiens) (UniProt P28335); settings: Compound concentration 10.0 uM
[6] = biological target: Tyrosine-protein kinase Lck (Homo sapiens) (UniProt P06239); assay: LCK_CE Eurofins SafetyScreen44 (BI); settings: Compound concentration 10.0 uM
[7] = biological target: Muscarinic acetylcholine receptor M2 (Homo sapiens) (UniProt P08172); settings: Compound concentration 10.0 uM
[8] = biological target: Alpha-2A adrenergic receptor (Homo sapiens) (UniProt P08913); settings: Compound concentration 10.0 uM
Trypsin (Homo sapiens) = Trypsin (Homo sapiens) (UniProt P07477+P07478+P35030); assay: TRYPSIN_CE Eurofins SafetyScreen44 (BI); assay type: protein assay; settings: Compound concentration 10.0 uM
[9] = biological target: 5-hydroxytryptamine receptor 1E (Homo sapiens) (UniProt P28566); settings: Compound concentration 10.0 uM
[10] = biological target: Alpha-2C adrenergic receptor (Homo sapiens) (UniProt P18825); settings: Compound concentration 10.0 uM
[11] = biological target: Human immunodeficiency virus type 1 protease (Human immunodeficiency virus 1) (UniProt Q72874); assay: HIV-1/H Eurofins SafetyScreen44 (BI); settings: Compound concentration 10.0 uM
[12] = biological target: Muscarinic acetylcholine receptor M3 (Homo sapiens) (UniProt P20309); assay: M3/H Eurofins SafetyScreen44 (BI); settings: Compound concentration 10.0 uM
[13] = biological target: Stromelysin-1 (Homo sapiens) (UniProt P08254); assay: MMP-3 (H) Eurofins SafetyScreen44 (BI); settings: Compound concentration 10.0 uM
Rattus norvegicus = species on record: Rattus norvegicus; assay: NA+/SITE2/R Eurofins SafetyScreen44 (BI); settings: Compound concentration 10.0 uM
[14] = biological target: D(1A) dopamine receptor (Homo sapiens) (UniProt P21728); assay: D1/H Eurofins SafetyScreen44 (BI); settings: filed as antagonist, Compound concentration 10.0 uM
[15] = biological target: Mu-type opioid receptor (Homo sapiens) (UniProt P35372); assay: MU/H Eurofins SafetyScreen44 (BI); settings: Compound concentration 10.0 uM
[16] = biological target: Mu-type opioid receptor (Homo sapiens) (UniProt P35372); settings: Compound concentration 10.0 uM
[17] = biological target: Adenosine receptor A2a (Homo sapiens) (UniProt P29274); assay: A2A/H Eurofins SafetyScreen44 (BI); settings: filed as antagonist, Compound concentration 10.0 uM
Caspase-2 (Homo sapiens) = Caspase-2 (Homo sapiens) (UniProt P42575); assay: CASPASE-2(H) Eurofins SafetyScreen44 (BI); settings: Compound concentration 10.0 uM
[18] = biological target: Endothelin-1 receptor (Homo sapiens) (UniProt P25101); assay: ETA/H Eurofins SafetyScreen44 (BI); settings: Compound concentration 10.0 uM
[19] = biological target: Matrix metalloproteinase-9 (Homo sapiens) (UniProt P14780); assay: MMP-9 (H) Eurofins SafetyScreen44 (BI); settings: Compound concentration 10.0 uM
[20] = biological target: Sodium-dependent dopamine transporter (Homo sapiens) (UniProt Q01959); assay: DATRANS/HUM Eurofins SafetyScreen44 (BI); settings: Compound concentration 10.0 uM
[21] = biological target: Sodium-dependent serotonin transporter (Homo sapiens) (UniProt P31645); assay: SLC6A4/H Eurofins SafetyScreen44 (BI); settings: filed as antagonist, Compound concentration 10.0 uM
[22] = biological target: Matrilysin (Homo sapiens) (UniProt P09237); assay: MMP-7 (H) Eurofins SafetyScreen44 (BI); settings: Compound concentration 10.0 uM
[23] = biological target: Muscarinic acetylcholine receptor M2 (Homo sapiens) (UniProt P08172); assay: M2/H Eurofins SafetyScreen44 (BI); settings: filed as antagonist, Compound concentration 10.0 uM
[24] = biological target: D(2) dopamine receptor (Homo sapiens) (UniProt P14416); assay: D2SH_AGON Eurofins SafetyScreen44 (BI); settings: filed as agonist, Compound concentration 10.0 uM
[25] = biological target: Macrophage metalloelastase (Homo sapiens) (UniProt P39900); assay: MMP-12 Eurofins SafetyScreen44 (BI); settings: Compound concentration 10.0 uM
[26] = biological target: 3',5'-cyclic-AMP phosphodiesterase 4D (Homo sapiens) (UniProt Q08499); assay: PDE4D2 Eurofins SafetyScreen44 (BI); settings: Compound concentration 10.0 uM
[27] = biological target: Proteinase-activated receptor 1 (Homo sapiens) (UniProt P25116); assay: PAR1(H)ANTAG Eurofins SafetyScreen44 (BI); settings: filed as antagonist, Compound concentration 10.0 uM
[28] = biological target: Histamine H1 receptor (Homo sapiens) (UniProt P35367); settings: Compound concentration 10.0 uM
[29] = biological target: Glucocorticoid receptor (Homo sapiens) (UniProt P04150); assay: GCORTICOID/H Eurofins SafetyScreen44 (BI); settings: Compound concentration 10.0 uM
[30] = biological target: Prostaglandin G/H synthase 1 (Homo sapiens) (UniProt P23219); assay: COX-1 Eurofins SafetyScreen44 (BI); settings: Compound concentration 10.0 uM
[31] = biological target: Kappa-type opioid receptor (Homo sapiens, UniProt P41145); assay: KAPPA(KOP)_HU Eurofins SafetyScreen44 (BI); settings: Compound concentration 10.0 uM
[32] = biological target: Histamine H4 receptor (Homo sapiens) (UniProt Q9H3N8); settings: Compound concentration 10.0 uM
[33] = biological target: Dipeptidyl peptidase 4 (Homo sapiens) (UniProt P27487); assay: DIPEPTIDYLPEPTIDASE Eurofins SafetyScreen44 (BI); settings: Compound concentration 10.0 uM
[34] = biological target: Caspase-10 (Homo sapiens) (UniProt Q92851); assay: CASPASE-10(H) Eurofins SafetyScreen44 (BI); settings: Compound concentration 10.0 uM
[35] = biological target: D(1B) dopamine receptor (Homo sapiens) (UniProt P21918); settings: Compound concentration 10.0 uM
[36] = biological target: Cannabinoid receptor 1 (Homo sapiens) (UniProt P21554); assay: CB1(HU)_AGON Eurofins SafetyScreen44 (BI); settings: Rattus norvegicus; filed as agonist; Compound concentration 10.0 uM
[37] = biological target: 5-hydroxytryptamine receptor 1D (Homo sapiens, UniProt P28221); settings: Compound concentration 10.0 uM
Caspase-7 (Homo sapiens) = Caspase-7 (Homo sapiens) (UniProt P55210); assay: CASPASE-7(H) Eurofins SafetyScreen44 (BI); settings: Compound concentration 10.0 uM
[38] = biological target: Muscarinic acetylcholine receptor M1 (Homo sapiens) (UniProt P11229); settings: Compound concentration 10.0 uM
[39] = biological target: Neutrophil collagenase (Homo sapiens) (UniProt P22894); assay: MMP-8(H) Eurofins SafetyScreen44 (BI); settings: Compound concentration 10.0 uM
[40] = biological target: D(4) dopamine receptor (Homo sapiens) (UniProt P21917); settings: Compound concentration 10.0 uM

Chain of Mu-type opioid receptor (Homo sapiens) (P35372 whole entry): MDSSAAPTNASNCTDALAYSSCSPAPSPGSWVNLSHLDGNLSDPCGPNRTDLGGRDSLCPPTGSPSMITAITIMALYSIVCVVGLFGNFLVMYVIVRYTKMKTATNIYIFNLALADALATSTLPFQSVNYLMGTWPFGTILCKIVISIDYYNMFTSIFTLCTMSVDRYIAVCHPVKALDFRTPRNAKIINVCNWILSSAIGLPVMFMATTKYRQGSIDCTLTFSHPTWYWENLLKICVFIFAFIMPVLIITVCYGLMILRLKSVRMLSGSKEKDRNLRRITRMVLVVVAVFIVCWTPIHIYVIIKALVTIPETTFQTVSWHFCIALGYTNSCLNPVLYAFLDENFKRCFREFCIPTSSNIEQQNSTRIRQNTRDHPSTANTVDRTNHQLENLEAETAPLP
Chain of Muscarinic acetylcholine receptor M2 (Homo sapiens) (P08172 whole entry): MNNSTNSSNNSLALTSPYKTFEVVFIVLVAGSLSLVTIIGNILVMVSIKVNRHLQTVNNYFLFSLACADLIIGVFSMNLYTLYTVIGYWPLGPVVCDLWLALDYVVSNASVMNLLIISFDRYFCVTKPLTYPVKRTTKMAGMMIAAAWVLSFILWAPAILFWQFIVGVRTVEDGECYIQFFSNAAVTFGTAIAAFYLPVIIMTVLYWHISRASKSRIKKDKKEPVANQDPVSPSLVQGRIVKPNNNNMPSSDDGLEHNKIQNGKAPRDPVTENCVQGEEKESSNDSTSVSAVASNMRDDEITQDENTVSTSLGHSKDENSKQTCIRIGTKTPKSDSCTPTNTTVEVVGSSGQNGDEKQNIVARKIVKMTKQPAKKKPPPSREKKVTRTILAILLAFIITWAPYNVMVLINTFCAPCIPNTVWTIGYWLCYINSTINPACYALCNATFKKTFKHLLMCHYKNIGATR
Chain of Caspase-6 (Homo sapiens) (P55212 24-179 limits assumed): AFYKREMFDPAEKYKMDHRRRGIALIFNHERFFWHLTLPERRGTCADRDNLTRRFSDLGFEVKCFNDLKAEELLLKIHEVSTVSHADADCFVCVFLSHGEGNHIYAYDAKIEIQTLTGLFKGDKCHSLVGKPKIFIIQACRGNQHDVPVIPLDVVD
Chain of Caspase-6 (Homo sapiens) (P55212 194-293 limits assumed): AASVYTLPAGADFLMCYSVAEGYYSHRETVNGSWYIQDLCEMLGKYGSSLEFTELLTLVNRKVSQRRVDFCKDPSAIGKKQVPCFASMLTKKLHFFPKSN
Chain of Caspase-7 (Homo sapiens) (P55210 24-198 limits assumed): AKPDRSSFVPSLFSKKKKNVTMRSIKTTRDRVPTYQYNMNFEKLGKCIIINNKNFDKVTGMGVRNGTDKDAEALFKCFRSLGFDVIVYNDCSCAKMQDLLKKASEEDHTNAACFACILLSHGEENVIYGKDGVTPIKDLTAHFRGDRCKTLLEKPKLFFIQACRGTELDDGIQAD
Chain of Caspase-7 (Homo sapiens) (P55210 207-303 limits assumed): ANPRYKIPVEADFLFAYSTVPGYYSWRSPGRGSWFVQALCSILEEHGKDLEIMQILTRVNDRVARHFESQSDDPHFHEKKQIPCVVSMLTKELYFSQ
Chain of Histamine H1 receptor (Homo sapiens) (P35367 whole entry): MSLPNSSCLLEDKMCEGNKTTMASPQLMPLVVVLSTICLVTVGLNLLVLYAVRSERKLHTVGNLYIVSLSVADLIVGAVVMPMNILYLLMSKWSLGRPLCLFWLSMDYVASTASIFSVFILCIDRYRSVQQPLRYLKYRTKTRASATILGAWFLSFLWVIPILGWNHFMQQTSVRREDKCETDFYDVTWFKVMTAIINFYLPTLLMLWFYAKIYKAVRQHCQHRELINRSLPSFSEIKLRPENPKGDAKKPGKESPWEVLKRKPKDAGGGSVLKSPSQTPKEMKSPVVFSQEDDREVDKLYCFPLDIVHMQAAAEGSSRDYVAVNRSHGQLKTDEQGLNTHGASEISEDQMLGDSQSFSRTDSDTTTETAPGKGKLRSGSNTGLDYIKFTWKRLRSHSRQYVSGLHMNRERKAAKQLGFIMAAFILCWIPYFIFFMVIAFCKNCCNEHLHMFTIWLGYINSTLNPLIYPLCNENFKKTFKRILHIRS
Chain of Matrix metalloproteinase-9 (Homo sapiens) (P14780 whole entry): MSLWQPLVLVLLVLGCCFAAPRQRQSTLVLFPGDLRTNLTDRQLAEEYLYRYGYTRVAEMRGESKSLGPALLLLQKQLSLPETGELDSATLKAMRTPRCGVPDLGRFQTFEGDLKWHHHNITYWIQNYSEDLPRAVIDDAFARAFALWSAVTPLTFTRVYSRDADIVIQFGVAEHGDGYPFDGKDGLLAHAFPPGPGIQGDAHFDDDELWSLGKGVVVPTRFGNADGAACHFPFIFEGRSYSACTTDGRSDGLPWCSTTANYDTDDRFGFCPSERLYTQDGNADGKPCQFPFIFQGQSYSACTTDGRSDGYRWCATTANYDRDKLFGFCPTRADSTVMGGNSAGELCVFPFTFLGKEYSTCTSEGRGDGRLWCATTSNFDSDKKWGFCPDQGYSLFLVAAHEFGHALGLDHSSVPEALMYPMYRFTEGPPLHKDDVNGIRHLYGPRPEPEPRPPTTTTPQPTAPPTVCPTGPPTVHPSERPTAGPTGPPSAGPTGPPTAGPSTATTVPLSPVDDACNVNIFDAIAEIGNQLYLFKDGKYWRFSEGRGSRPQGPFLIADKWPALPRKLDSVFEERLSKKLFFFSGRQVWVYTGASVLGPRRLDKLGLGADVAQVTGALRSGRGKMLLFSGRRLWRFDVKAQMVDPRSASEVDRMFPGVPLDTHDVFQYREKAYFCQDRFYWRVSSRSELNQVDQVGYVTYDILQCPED
Chain of Matrilysin (Homo sapiens) (P09237 whole entry): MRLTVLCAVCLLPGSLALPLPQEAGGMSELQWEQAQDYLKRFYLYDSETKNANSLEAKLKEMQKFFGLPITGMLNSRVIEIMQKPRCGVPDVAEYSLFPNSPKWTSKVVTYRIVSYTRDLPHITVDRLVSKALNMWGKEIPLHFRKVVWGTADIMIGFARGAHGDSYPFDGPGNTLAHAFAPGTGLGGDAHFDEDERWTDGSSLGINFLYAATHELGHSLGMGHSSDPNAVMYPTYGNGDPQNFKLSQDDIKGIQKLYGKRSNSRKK
Chain of Endothelin-1 receptor (Homo sapiens) (P25101 whole entry): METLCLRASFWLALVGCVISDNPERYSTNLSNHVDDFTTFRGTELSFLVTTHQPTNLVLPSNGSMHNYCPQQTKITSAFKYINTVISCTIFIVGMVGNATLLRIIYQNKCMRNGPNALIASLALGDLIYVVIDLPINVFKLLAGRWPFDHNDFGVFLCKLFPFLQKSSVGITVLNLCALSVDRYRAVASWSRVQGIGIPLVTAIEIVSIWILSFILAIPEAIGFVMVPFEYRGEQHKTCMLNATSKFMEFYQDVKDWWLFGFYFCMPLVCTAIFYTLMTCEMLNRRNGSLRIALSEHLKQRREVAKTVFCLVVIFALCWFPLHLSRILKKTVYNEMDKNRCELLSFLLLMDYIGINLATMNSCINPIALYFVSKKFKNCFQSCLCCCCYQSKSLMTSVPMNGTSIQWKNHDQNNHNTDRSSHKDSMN
Chain of Caspase-8 (Homo sapiens) (Q14790 217-374 limits assumed): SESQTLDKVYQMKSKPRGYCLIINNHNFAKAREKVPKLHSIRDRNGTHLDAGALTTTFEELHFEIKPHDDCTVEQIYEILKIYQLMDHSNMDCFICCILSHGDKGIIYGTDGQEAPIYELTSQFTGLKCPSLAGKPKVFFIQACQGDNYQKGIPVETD
Chain of Caspase-8 (Homo sapiens) (Q14790 385-479 limits assumed): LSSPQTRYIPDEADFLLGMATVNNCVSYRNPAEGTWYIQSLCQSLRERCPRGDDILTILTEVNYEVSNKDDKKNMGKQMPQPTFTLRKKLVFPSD
Chain of D(1B) dopamine receptor (Homo sapiens) (P21918 whole entry): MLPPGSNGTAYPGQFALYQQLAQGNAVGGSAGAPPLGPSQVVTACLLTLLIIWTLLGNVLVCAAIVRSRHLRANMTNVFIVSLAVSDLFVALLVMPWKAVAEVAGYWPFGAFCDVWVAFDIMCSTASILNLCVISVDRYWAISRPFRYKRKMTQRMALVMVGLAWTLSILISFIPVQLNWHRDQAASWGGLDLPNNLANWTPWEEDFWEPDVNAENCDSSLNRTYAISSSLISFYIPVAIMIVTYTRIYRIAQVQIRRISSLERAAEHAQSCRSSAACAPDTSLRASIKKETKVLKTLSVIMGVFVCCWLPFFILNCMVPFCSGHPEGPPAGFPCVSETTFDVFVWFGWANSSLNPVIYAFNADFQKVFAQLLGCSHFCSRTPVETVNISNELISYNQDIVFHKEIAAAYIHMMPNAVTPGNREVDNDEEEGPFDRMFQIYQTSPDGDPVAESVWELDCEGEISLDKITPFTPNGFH
Chain of Sodium-dependent serotonin transporter (Homo sapiens) (P31645 whole entry, looked up): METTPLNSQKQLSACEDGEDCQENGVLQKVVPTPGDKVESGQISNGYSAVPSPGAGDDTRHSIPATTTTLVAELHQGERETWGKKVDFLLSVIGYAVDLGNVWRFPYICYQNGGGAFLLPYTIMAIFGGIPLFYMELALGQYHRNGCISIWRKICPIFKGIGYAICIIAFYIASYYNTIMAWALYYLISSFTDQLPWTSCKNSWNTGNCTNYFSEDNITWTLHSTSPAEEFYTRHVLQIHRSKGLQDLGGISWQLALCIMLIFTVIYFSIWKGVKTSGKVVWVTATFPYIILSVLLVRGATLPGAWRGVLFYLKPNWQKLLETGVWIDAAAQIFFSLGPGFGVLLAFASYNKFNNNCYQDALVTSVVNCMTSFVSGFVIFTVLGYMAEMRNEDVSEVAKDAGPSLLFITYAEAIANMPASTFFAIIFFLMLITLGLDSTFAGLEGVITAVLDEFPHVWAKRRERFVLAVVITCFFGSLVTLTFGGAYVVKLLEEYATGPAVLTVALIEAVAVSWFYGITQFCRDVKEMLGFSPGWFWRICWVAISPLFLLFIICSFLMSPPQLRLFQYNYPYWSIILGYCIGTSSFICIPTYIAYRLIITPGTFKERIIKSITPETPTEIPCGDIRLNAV

inhibition [2]: 27.2% | inhibition [3]: 12.1% | inhibition [4]: 11.1% | inhibition [5]: 1.02% | inhibition [7]: 12% | inhibition [8]: 19.6% | inhibition [9]: -9.73% | inhibition [10]: 13.8% | inhibition [16]: 2.82% | inhibition [28]: 14.1% | inhibition [32]: -5.56% | inhibition [35]: 22.2% | inhibition [37]: 52.9% | inhibition [38]: 8.69% | inhibition [40]: -1.4%
SMILES: CC[C@H](CC(=O)O)n1c(=O)c2ncccc2n(Cc2cn(C)c3cc(C)cc(C)c23)c1=O [BI-1942]
residual activity [1]: 101% | residual activity (Caspase-1 (Homo sapiens)): 103% | residual activity (Caspase-6 (Homo sapiens)): 99% | residual activity (Caspase-8 (Homo sapiens)): 88% | residual activity [6]: 103% | residual activity (Trypsin (Homo sapiens)): 108% | residual activity [11]: 111% | residual activity [12]: 98% | residual activity [13]: 90% | residual activity (Rattus norvegicus): 97% | residual activity [14]: 96% | residual activity [15]: 96% | residual activity [17]: 98% | residual activity (Caspase-2 (Homo sapiens)): 156% | residual activity [18]: 106% | residual activity [19]: 124% | residual activity [20]: 101% | residual activity [21]: 86% | residual activity [22]: 100% | residual activity [23]: 104% | residual activity [24]: 108% | residual activity [25]: 104% | residual activity [26]: 106% | residual activity [27]: 120% | residual activity [29]: 107% | residual activity [30]: 134% | residual activity [31]: 89% | residual activity [33]: 107% | residual activity [34]: 111% | residual activity [36]: 114% | residual activity (Caspase-7 (Homo sapiens)): 101% | residual activity [39]: 107%
